In patent publication EP1285919A1, “C10 Carbonate substituted taxanes as antitumor agents” (Florida State University Research Foundation, Inc., priority 2001, dated 2003):

Tests used:
[1] = tested on: VM46 Human Colon Carcinoma; assay: In vivo evaluation against VM46 colon carcinoma xenografts; design: species or system NCr-nude mice; Mean Score: scale not given here
Method: In Vivo Evaluation of Antitumor Compounds Against VM46 Human Colon Carcinoma
The VM46 tumor group mean size range was 181-188 mg. Dosing was initiated on Day 1. […] Taxotere was given i.v. at a dose of 70 mg/kg on a qd x 1 schedule. […] The study was terminated on Day 64. Treatment groups are detailed in Table 11.

[2] = tested on: DU 145 Human Prostrate Carcinoma Xenografts; assay: In vivo evaluation against DU145 prostate carcinoma xenografts
Method: In Vivo Evaluation of Antitumor Compounds Against DU 145 Human Prostrate Carcinoma Xenografts
(§1) Antitumor compounds were prepared in a vehicle of 5% ethanol, 5% Cremophor and 90% isotonic saline in the manner as described for Solution 1 of Example 10. Taxol (paclitaxel; Bristol Meyers Squibb) was obtained as the marketed pharmaceutical drug. The dosing volume was 0.3 ml per 20 g mouse.
Male NCr-nude mice were implanted subcutaneously with 1 mm^3 DU145 prostate carcinoma fragments in the flank and sorted into treatment groups of five mice each. […] Dosing was initiated on Day 1. The antitumor compounds were given i.v. at an estimated maximum tolerated dose (MTD) appropriate for each agent on a qd x 1 schedule (single administration of compound). The i.v. Taxol was given on the qd x 1 schedule as two split doses (one hour between) of 12 mg/kg per split dose (total dose = 24 mg/kg). Taxol was also administered intraperitoneally (i.p.) on a qd x 5 schedule at a daily dose of 18 mg/kg. The vehicle was administered i.v. to control mice in Group 1 on the qd x 1 schedule. The study was terminated on Day 91. Treatment groups are detailed in Table 3.
The mean days of survival is the number of days after which a neoplasm reached a size of 1.5 g and the animal was euthanized. A complete response is obtained […]. […]

[3] = tested on: A375 Human Melanoma Xenografts; assay: In vivo evaluation against A375 melanoma xenografts
Method: In Vivo Evaluation of Antitumor Compounds Against A375 Human Melanoma Xenografts
as §1, with “Squibb) and Taxotere (docetaxel; Rhône-Poulenc Rorer) were” for “Squibb) was”, “pharmaceutical drugs.” for “pharmaceutical drug.”
Female NCr-nude mice were implanted subcutaneously with 1 mm^3 A375 melanoma fragments in the flank were sorted into treatment groups of six mice each, except the Taxotere treatment group which was a group of seven mice. […] Dosing was initiated on Day 1. The antitumor compounds were given i.v. at an estimated maximum tolerated dose (MTD) appropriate for each agent on a qd x 1 schedule (single administration of compound). The i.v. taxol was given on the qd x 1 schedule as two split doses (one hour between) of 12 mg/kg per split dose (total dose = 24 mg/kg). Taxol was also administered i.p. on a qd x 5 schedule at a daily dose of 18 mg/kg. Taxotere was given i.v. on a qd x 1 schedule at a dose of 70 mg/kg. The vehicle was administered i.v. to control mice in Group 1 on the qd x 1 schedule. The study was terminated on Day 60. Treatment groups are detailed in Table 7.
The results are summarized in Table 8 and include mean days of survival (MDS), number of toxic deaths, number of survivors, number of complete or partial responses, and number with stable disease. The mean days of survival is the number of days after which a neoplasm reached a size of 2.0 g and the animal was euthanized. A complete response is obtained […].

[4] = tested on: A2780 Human Ovarian Carcinoma Xenografts; assay: In vivo evaluation against A2780 ovarian carcinoma xenografts; design: species or system NCr-nude mice; Mean Score: scale not given here; conditions: for MDS (n): 2.0 g endpoint
Method: In Vivo Evaluation of Antitumor Compounds Against A2780 Human Ovarian Carcinoma Xenografts
The A2780 group mean size range was 237-243 mg. Dosing was initiated on Day 1. […] Treatment groups are detailed in Table 5.

[5] = 1781 i.v. qd x 1 at estimated MTD
[6] = Group 4: 60 mg/kg i.v. qd x 1, 6 mice, study to Day 64
[7] = Group 4: i.v. qd x 1 at estimated MTD, 5 mice, study to Day 91
[8] = Group 4: 72.6 mg/kg i.p. qd x 1, 6 mice, study to Day 60
[9] = Group 4: 60.6 mg/kg i.v. qd x 1, 5 mice, study to Day 60
[10] = Group 2: 24 mg/kg i.v. qd x 1 (two split doses of 12 mg/kg), 6 mice, study to Day 64
[11] = Group 3: 15 mg/kg i.p. qd x 5, 6 mice, study to Day 64
[12] = Group 2: 24 mg/kg i.v. qd x 1 (two split doses of 12 mg/kg), 5 mice, study to Day 91
[13] = Group 3: 18 mg/kg i.p. qd x 5, 5 mice, study to Day 91
[14] = Group 2: 24 mg/kg i.v. qd x 1 (two split doses of 12 mg/kg), 6 mice, study to Day 60
[15] = Group 3: 18 mg/kg i.p. qd x 5, 6 mice, study to Day 60
[16] = i.v. qd x 1, Taxol 24 mg/kg, Taxotere 70 mg/kg
[17] = i.v. qd x 1, Taxol 24 mg/kg, Taxotere 70 mg/kg, 2.0 g cut-off
[18] = Group 2: 24 mg/kg i.v. qd x 1 (two split doses of 12 mg/kg), 5 mice, study to Day 60
[19] = Group 3: 15 mg/kg i.p. qd x 5, 5 mice, study to Day 60

## CCOC(=O)O[C@H]1C(=O)[C@@]2(C)[C@H]([C@H](OC(=O)c3ccccc3)[C@]3(O)C[C@H](OC(=O)[C@H](O)[C@H](C=C(C)C)NC(=O)OC(C)(C)C)C(C)=C1C3(C)C)[C@]1(OC(C)=O)CO[C@@H]1C[C@@H]2O [Compound 1781]
[1]; 1781 i.v. qd x 1, six mice
  Toxic Deaths: no toxic deaths
[1]; [5]
  response rate: 16.7%
[1]; Group 4: 60 mg/kg i.v. qd x 1, 6 mice, n=5, 1.5 g endpoint, study to Day 64
  MDS (n): 42.2 ± 7.1(5) days
[1]; [6]
  Complete Response: 0
  Mean Score: 3 ± 1.2
  Partial Response: 1
  Stable Disease: 0
  Toxic Deaths: 0
[1]; mouse, in vivo, iv
  tolerability: well-tolerated
[2]; 1781 72.6 mg/kg i.v. qd x 1, in a number of treated mice prior to death
  weight loss: over 20%
[2]; [7]
  Complete Response: 0
  Mean Score: 0 ± 0
  Partial Response: 0
  Stable Disease: 0
  Survivors: 0
  Toxic Deaths: 5
[3]; 1781 i.v. qd x 1 at estimated MTD, six mice
  Toxic Deaths: five
[3]; [8]
  Complete Response: 0
  Mean Score: 0.5 ± 0.5
  Partial Response: 0
  Stable Disease: 0
  Survivors: 0
  Toxic Deaths: 5
[3]; mouse, in vivo, iv
  mean group weight losses: 20-30%
[4]; [5]
  total response rate: at least 20%
[4]; 1781 i.v. qd x 1 at estimated MTD, five mice treated
  partial responses: 2
[4]; Group 4: 60.6 mg/kg i.v. qd x 1, 5 mice, n=2, study to Day 60
  MDS (n): 38.5 ± 8.3 (2) days
[4]; [9]
  Complete Response: 0
  Mean Score: 6 ± 1.3
  Partial Response: 2
  Stable Disease: 1
  Survivors: 3
  Toxic Deaths: 0

## CC(=O)O[C@H]1C(=O)[C@@]2(C)[C@H]([C@H](OC(=O)c3ccccc3)[C@]3(O)C[C@H](OC(=O)[C@H](O)[C@@H](NC(=O)c4ccccc4)c4ccccc4)C(C)=C1C3(C)C)[C@]1(OC(C)=O)CO[C@@H]1C[C@@H]2O [Taxol]
[1]; Group 2: 24 mg/kg i.v. qd x 1 (two split doses of 12 mg/kg), 6 mice, n=4, 1.5 g endpoint, study to Day 64
  MDS (n): 43.3 ± 3.7 (4) days
[1]; [10]
  Complete Response: 0
  Mean Score: 3.8 ± 1.4
  Partial Response: 1
  Stable Disease: 1
  Toxic Deaths: 0
[1]; Group 3: 15 mg/kg i.p. qd x 5, 6 mice, n=2, 1.5 g endpoint, study to Day 64
  MDS (n): 36.1 ± 12.2(2) days
[1]; [11]
  Complete Response: 0
  Mean Score: 1.8 ± 1.3
  Partial Response: 1
  Stable Disease: 0
  Toxic Deaths: 3
[1]; Taxol 15 mg/kg i.p. qd x 5, six treated animals
  mortalities: three
[1]; i.v. qd x 1, Taxol 24 mg/kg (four mice), Taxotere 70 mg/kg, 1.5 g endpoint
  MDS: 43.3 days
[1]; number of cases, Taxol 24 mg/kg i.v. qd x 1, six mice
  Stable Disease: one
[1]; number of mice, Taxol 24 mg/kg i.v. qd x 1, six mice
  Partial Response: one
[2]; Group 2: 24 mg/kg i.v. qd x 1 (two split doses of 12 mg/kg), 5 mice, n=3, 1.5 g endpoint, study to Day 91
  MDS (n): 37.4 ± 8.9 (3) days
[2]; [12]
  Complete Response: 0
  Mean Score: 2 ± 1
  Partial Response: 0
  Stable Disease: 1
  Survivors: 1
  Toxic Deaths: 1
[2]; [13]
  Complete Response: 0
  Mean Score: 0 ± 0
  Partial Response: 0
  Stable Disease: 0
  Survivors: 0
  Toxic Deaths: 5
[2]; Taxol 18 mg/kg i.p. qd x 5
  weight loss: more than 20%
[2]; Taxol 18 mg/kg i.p. qd x 5, five mice
  mice died of drug-related side effects: five
[2]; Taxol 24 mg/kg i.v. qd x 1
  increase in survival compared to Group 1 controls: 9%
[2]; Taxol 24 mg/kg i.v. qd x 1, 1.5 g endpoint, three of five animals
  MDS: 37.4 days
[3]; Group 2: 24 mg/kg i.v. qd x 1 (two split doses of 12 mg/kg), 6 mice, n=4, 2.0 g endpoint, study to Day 60
  MDS (n): 18.1 ± 0.6 (4) days
[3]; [14]
  Complete Response: 0
  Mean Score: 0.8 ± 0.3
  Partial Response: 0
  Stable Disease: 0
  Survivors: 0
  Toxic Deaths: 2
[3]; [15]
  Complete Response: 0
  Mean Score: 0 ± 0
  Partial Response: 0
  Stable Disease: 0
  Survivors: 0
  Toxic Deaths: 6
[3]; Taxol 18 mg/kg i.p. qd x 5, six mice
  animals died of toxicity: six
[3]; [16]
  survival extension compared to Group 1 controls: 26%
[3]; [17]
  MDS: 18.1 days
[4]; Group 2: 24 mg/kg i.v. qd x 1 (two split doses of 12 mg/kg), 5 mice, n=5, study to Day 60
  MDS (n): 21.9 ± 5.5 (5) days
[4]; [18]
  Complete Response: 0
  Mean Score: 1.8 ± 0.4
  Partial Response: 0
  Stable Disease: 0
  Survivors: 1
  Toxic Deaths: 0
[4]; [19]
  Complete Response: 0
  Mean Score: 0.6 ± 0.6
  Partial Response: 0
  Stable Disease: 0
  Survivors: 0
  Toxic Deaths: 4
[4]; Taxol 15 mg/kg i.p. qd x 5, five mice
  mice succumbed to drug-related side effects: four
[4]; [16]
  increase in survival / survival extension compared to Group 1 controls: 87%
[4]; [17]
  MDS: 21.9 days
[4]; number of animals, Taxol 24 mg/kg i.v. qd x 1, Day 61
  Stable Disease: One
